Measurements taken from US20160205931A1, “SEX PHEROMONE DERIVATIVES, AND METHODS AND USES THEREOF” (Her Majesty the Queen in Right of Canada, as rep. by the …, priority 2015, published 2016).

Tests used:
Release rate of lures = type: physicochemical; conditions: 25° C.
Procedure: Traps were baited with one of three treatments: 1) (3Z)-hexenol alone; 2) 3.0 mg dose of (3Z)-lactone+(3Z)-hexenol; or 3) dodecan-12-olide+(3Z)-hexenol. The dodecan-12-olide dose was 3.0 mg or 5.0 mg. A higher dose of the analog was used to attempt to increase its effect on captures of EAB relative to the (3Z)-lactone. (3Z)-Lactone and the analog were each loaded onto rubber septa lures (Wheaton Scientific, Millville, N.J.). (3Z)-Hexenol lures were obtained from Synergy Semiochemicals. Release rates of the 3.0 mg (3Z)-lactone, 3.0 mg and 5.0 mg dodecan-12-olide lures, and (3Z)-hexenol were ˜66 μg/d, ˜60 μg/d and ˜80 μg/d. These values were determined as in Silk et al. 2011, and 50-100 mg/d (by weight loss), respectively, at 25° C. The (3Z)-lactone and analog lures were estimated to maintain sustained and almost constant release rates for a minimum of 6 wk, and thus were not replaced during the experiment. Similarly, (3Z)-hexenol lures were not replaced during the experiment.

[1] = tested on: male and female EAB antennae; assay: Electroantennography (EAG), puff technique; parameters: species or system Agrilus planipennis; conditions: for electroantennogram activity with male or female EABs: compared with controls / with the (3Z)- and (3E)-lactones
Procedure: Electroantennogram analyses (EAG) were conducted using methods and equipment generally described by Silk et al. in 2007 (Silk P J, et al (2007) Evidence for a male-produced pheromone in Tetropium fuscum (F.) (Coleoptera: Cerambycidae). Naturwissenschaften 94: 697-701). Antennae were excised close to the head and mounted using electrode gel (Spectra 360 electrode gel; Parker, Fairfield, N.J., USA) on an EAG probe (gold) for electrical contact. EAG signals were recorded using Syntech recording and analysis software v. 2.6 (Syntech, Hilversum, The Netherlands).
The (3Z)- and (3E)-lactones, and dodecan-12-olide were tested using the puff technique described by Silk et al. in 2011 (Silk P J, Ryall K, Mayo P, Lemay M, Grant G, Crook D, Cossé A, Fraser I, Sweeney J D, Lyons D B, Pitt D, Scarr T, Magee D (2011) Evidence for a volatile pheromone in Agrilus planipennis Fairmaire (Coleoptera: Buprestidae) that increases attraction to a host foliar volatile. Env Entomol 40: 904-916). Briefly: two microliters of serially diluted solutions (dichloromethane; DCM) of synthetic compounds were applied to filter paper strips (0.5 cm×5 cm, Whatman No. 1). The filter paper strips were placed in 14 cm long Pasteur pipettes, hereafter referred to as stimulus cartridges, after 5 min at room temperature. The stimulus dose tested was 1 μg. Male and female antennae were exposed to single 0.2 s puffs of odor-bearing air at 5 ml/s by placing the tip of a stimulus cartridge into a hole of a glass tube (0.7 cm ID×20 cm), 10 cm from the outlet and 11 cm away from the antennal preparation. Airflow through the glass tube was passed through a water bubbler and set at 10 ml/s. Each antennal preparation was tested with freshly prepared sets of stimuli cartridges using ˜6 male and ˜10 female antennae/treatment and used once for each treatment.
(§1) For the EAG results, male and female EAG responses were submitted to analysis of variance (ANOVA) and mean responses to each of the tested compounds separated using Tukey's test (P<0.05). […] Finally, in the trapping study, numbers of male and female EAB captured among the three treatments were analyzed separately by fitting generalized linear mixed effect models, with block as a random factor, to the Poisson distribution (GLMER function, R Development Core Team 2013). Chi-square tests were used to determine if a significant proportion of the variation in capture of male and female EAB was attributable to treatment. Chi-square tests were considered significant at P=0.05 or less and, if significant, the means separated using the Tukey's contrast option in the GLHT function (R Development Core Team 2013); raw data are presented as means±standard error.

adult EAB = assay: Two-choice Y-tube olfactometer bioassay; type: in vivo, Agrilus planipennis; conditions: 1 μg stimulus
Procedure: A Y-tube olfactometer (Analytical Research Systems Inc, Micanopy, Fla., USA) was used to test for short-range attraction of adult EAB to the lactones. […] Each arm was connected to a cylinder that contained the stimulus. Charcoal-filtered air was passed into each arm at a flow rate of 1.2 L/min. Treatments were 1 μg each of (3Z)-lactone, (3E)-lactone, and dodecan-12-olide. Each stimulus was diluted in dichloromethane, placed on a strip of filter paper, and given 1 min for the solvent to evaporate before being placed in the olfactometer. A filter paper with only solvent (control) was placed in the other arm of the olfactometer. The apparatus was rinsed with acetone after each treatment, and the arm attached to the test stimulus was randomized between replicates. For each trial, a single EAB (male or female) was given 10 min to choose between the two stimuli. A choice was recorded when the beetle passed a “finish line”, 7 cm beyond the branching point of each arm. […] Beetles were 8-14 d old, and 18-23 beetles were used per treatment.
as §1

EAB = assay: Field trapping studies, dark green sticky prism traps co-baited with (3Z)-hexenol; type: in vivo, Agrilus planipennis
Procedure: Three trapping experiments were conducted to test the effects of (3Z)-lactone and dodecan-12-olide on mean captures of EAB on dark green sticky prism traps using protocols discussed by Francese et al. in 2010 (Francese J A, Crook D J, Fraser I, Lance D A, A. J. Sawyer A J, Mastro V C (2010a) Optimization of trap color for the emerald ash borer, Agrilus planipennis (Coleoptera: Buprestidae). J Econ Entomol 103: 1235-1241) co-baited with (3Z)-hexenol. Urban street trees were used: trees were 20-40 cm in diameter, and 10-16 m in height. […] Dark green prism sticky traps (0.30×25.00×58.75 cm) (Synergy Semiochemicals Corp., Burnaby, British Columbia) were used in all field trials. Traps were spaced˜25 m apart, and lure treatments replicated in a randomized complete block design. Traps were deployed using either a limb hook over a lower to mid-canopy branch or a single rope over a mid-canopy branch. In both years, traps were checked every 2 wk and all EAB were collected, counted, and sexed.
Traps were baited with one of three treatments: 1) (3Z)-hexenol alone; 2) 3.0 mg dose of (3Z)-lactone+(3Z)-hexenol; or 3) dodecan-12-olide+(3Z)-hexenol. The dodecan-12-olide dose was 3.0 mg or 5.0 mg. A higher dose of the analog was used to attempt to increase its effect on captures of EAB relative to the (3Z)-lactone. (3Z)-Lactone and the analog were each loaded onto rubber septa lures (Wheaton Scientific, Millville, N.J.). (3Z)-Hexenol lures were obtained from Synergy Semiochemicals. […] These values were determined as in Silk et al. 2011, and 50-100 mg/d (by weight loss), respectively, at 25° C. […]
For the EAG results, male and female EAG responses were submitted to analysis of variance (ANOVA) and mean responses to each of the tested compounds separated using Tukey's test (P<0.05). […] Finally, in the trapping study, numbers of male and female EAB captured among the three treatments were analyzed separately by fitting generalized linear mixed effect models, with block as a random factor, to the Poisson distribution (GLMER function, R Development Core Team 2013). […]

With `CC/C=C\CCO` [(3Z)-hexenol, reference compound] the “release rate of lure” value (Release rate of lures; by weight loss) was 50000 to 100000 µg/day.
For `O=C1/C=C/CCCCCCCCCO1` [2E-dodecan-12-olide], the “electroantennogram activity with male or female EABs” value (“electroantennogram activity” below) [1] was “not significantly different from the controls”.
In the case of `O=C1CCCCCCCCCCCCCCO1` [pentadecan-15-olide, reference compound], the “electroantennogram activity” value [1] is reported as “not significantly different from the controls”.
For `O=C1C/C=C\CCCCCCCCO1` [(3Z)-lactone, (3Z)-dodecen-12-olide, reference compound], the “electroantennogram activity” value [1] was “active”.
With `O=C1CCCCCCCCCCCO1` [dodecan-12-olide] the “release rate of lure” value (Release rate of lures; 3.0 mg on rubber septa lure) was roughly 60 µg/day, the “release rate of lure” value (Release rate of lures; 5.0 mg on rubber septa lure) was roughly 80 µg/day and the “mean EAG responses of male and female EAB antennae” value ([1]; 1 μg source concentration, vs solvent control (dichloromethane), responses to the three compounds not significantly different from each other (Tukey's), FIG. 4) was “significantly greater than those to the solvent control”. For the same molecule, the “electroantennogram activity” value [1] was “comparable to the corresponding electroantennogram activity both the natural (3Z)-lactone and the (3E)-lactone analog”, the “attraction of female EAB to stimulus vs solvent control” value (adult EAB; females, 10 min choice, chi-square vs 1:1, FIG. 6) was “attracted” and the “attraction of male EAB to stimulus vs solvent control” value (adult EAB; males, 10 min choice, chi-square vs 1:1, FIG. 5) was “attracted”. For the same molecule, the “females captured vs the other two treatments” value (EAB; FIG. 7a, 3 mg per lure, co-baited with (3Z)-hexenol) was “significantly more females were captured”, the “females captured vs (3Z)-hexenol alone” value (EAB; FIG. 7b, dodecan-12-olide 5 mg, (3Z)-lactone 3 mg per lure, P<0.01) was “more females were captured” and the “activity relative to the natural (3Z)-lactone under comparable conditions” value (EAB; field trial, 3 mg per lure, male captures) was “about 85%”.
For `O=C1C/C=C/CCCCCCCCO1` [(3E)-lactone, (3E)-dodecen-12-olide, reference compound], the “electroantennogram activity” value [1] was “active” and the “proportion of the beetles that chose the stimulus arm” value (adult EAB; about 25% chose the control, no-choice beetles excluded, sex not given) was “about 75%”.
